Test results taken from ChEMBL document CHEMBL3769314, “4(5)-Aryl-2-C-glucopyranosyl-imidazoles as New Nanomolar Glucose Analogue Inhibitors of Glycogen Phosphorylase” (ACS Med Chem Lett, 2015).
Activity calls are given as the source filed them. The rule behind the calls is not given here.

Assays:
[1] = molecular target: T1, Glycogen phosphorylase, muscle form (Oryctolagus cuniculus) (UniProt P00489); assay: Inhibition of rabbit muscle glycogen phosphorylase-b using alpha-D-glucose-1-phosphate as substrate at 625 uM by Dixon plot analysis
T1 sequence (whole entry): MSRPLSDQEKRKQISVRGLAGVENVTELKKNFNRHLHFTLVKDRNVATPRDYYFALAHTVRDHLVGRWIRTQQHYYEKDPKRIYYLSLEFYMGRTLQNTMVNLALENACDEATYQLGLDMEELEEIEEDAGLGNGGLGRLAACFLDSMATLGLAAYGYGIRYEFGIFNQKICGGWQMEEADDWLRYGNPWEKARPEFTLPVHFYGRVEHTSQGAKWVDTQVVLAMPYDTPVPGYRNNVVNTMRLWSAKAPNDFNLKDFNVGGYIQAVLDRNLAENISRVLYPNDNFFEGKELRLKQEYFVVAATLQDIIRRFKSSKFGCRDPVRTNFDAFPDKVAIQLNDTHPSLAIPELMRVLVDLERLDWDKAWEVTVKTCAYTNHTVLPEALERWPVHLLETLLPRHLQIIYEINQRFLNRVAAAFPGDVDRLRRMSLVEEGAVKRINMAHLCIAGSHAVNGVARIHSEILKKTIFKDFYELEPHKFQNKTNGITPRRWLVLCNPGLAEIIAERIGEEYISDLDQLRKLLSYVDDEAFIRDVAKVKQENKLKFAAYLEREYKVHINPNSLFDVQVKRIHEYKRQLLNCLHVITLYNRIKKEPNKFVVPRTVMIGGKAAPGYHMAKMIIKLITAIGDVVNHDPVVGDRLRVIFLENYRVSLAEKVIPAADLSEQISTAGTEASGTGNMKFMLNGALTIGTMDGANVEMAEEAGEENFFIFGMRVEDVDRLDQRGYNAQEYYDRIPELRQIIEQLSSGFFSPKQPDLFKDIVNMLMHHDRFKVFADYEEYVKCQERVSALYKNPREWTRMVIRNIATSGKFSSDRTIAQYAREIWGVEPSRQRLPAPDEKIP

[2] = molecular target: T2, Glycogen phosphorylase, muscle form (Oryctolagus cuniculus, UniProt P00489)
T2 sequence (P00489 whole entry): T1 sequence (whole entry)

[3] = molecular target: T2, Glycogen phosphorylase, muscle form; assay: Competitive inhibition of rabbit muscle glycogen phosphorylase-b using alpha-D-glucose-1-phosphate as substrate by Dixon plot analysis

| Compound | Ki [3] [µM] | further results |
| --- | --- | --- |
| OC[C@H]1O[C@@H](c2cc(-c3ccccc3)on2)[C@H](O)[C@@H](O)[C@@H]1O |  | inhibition [1]: inactive |
| OC[C@H]1O[C@@H](c2cc(-c3ccccc3)n[nH]2)[C@H](O)[C@@H](O)[C@@H]1O |  | Ki [2]: 400 µM |
| OC[C@H]1O[C@@H](c2nc(-c3ccc4ccccc4c3)c[nH]2)[C@H](O)[C@@H](O)[C@@H]1O | 0.031 |  |
| OC[C@H]1O[C@@H](c2nc3ccccc3s2)[C@H](O)[C@@H](O)[C@@H]1O |  | Ki [2]: 229 µM |
| OC[C@H]1O[C@@H](c2nc(-c3ccccc3)c[nH]2)[C@H](O)[C@@H](O)[C@@H]1O | 0.28 |  |
| OC[C@H]1O[C@@H](c2nc(-c3ccc4ccccc4c3)cs2)[C@H](O)[C@@H](O)[C@@H]1O | 158 |  |
| OC[C@H]1O[C@@H](c2nc(-c3ccccc3)cs2)[C@H](O)[C@@H](O)[C@@H]1O | 310 |  |
